This is an account of results in EP1283052A1, “Pharmaceutical composition containing caspase-8 and /or caspase-9 useful for overcoming glucocorticoid- and cancer therapy-induced apoptosis of tumours” (Deutsches Krebsforschungszentrum Stiftung des öffentlichen …, priority 2001, dated 2003).

For this test, the system named is caspase-8. The experiment in a line: Fluorometric caspase-8 activity assay in CEM cells. In kind it is cell-based, human. The settings on record: cisplatin 2 µg/ml alone, Fig. 2b. The procedure:
• (a) Left: P5 an CEM cells were treated with cisplatin (1-5 µg/ml) in the absence or presence of DEX (1 µM) as indicated. Proteins were extracted and expression of CD95-L, TRAIL or TNF-α was detected by Western blot analysis. The size of the proteins in kDa is indicated. Right: HeLa and P5 were treated with CD95 agonistic antibody αAPO-1 (CD95, 1 µg/ml), recombinant TRAIL protein (TRAIL, 100 ng/ml) or recombinant TNF-α protein (TNF-α, 100 ng/ml) in the absence (white bars) or presence (black bars) of DEX (1 µM). 24 h later the percentage of apoptosis was determined by annexin-staining and FACS-analysis in untreated (CO) and stimulated cells at the time points indicated. • (b) P693 and CEM cells were treated with cisplatin (2 µg/ml) in the absence or presence of DEX as indicated. 24 and 48 h following treatment cells were lysed and caspase-8 activity was determined by a fluorescent caspase-8 assay and spectroscopy. • (c) P5 cells were stable transfected with empty vector (pcDNA3), or pcDNA3 vector encoding dominant negative FADD protein (FADD-DN). Proteins were extracted from both cell lines and expression of wildtype (WT) and FADD-DN (DN) was detected by Western blot. Left: Stable transfected P5 cells were treated with αAPO-1 (1 µg/ml) and 24 h later apoptosis was determined by staining with annexin/propidium iodide and flow-cytometry. […]

In the case of `N.N.[Cl][Pt][Cl]` [cisplatin], the “activity of caspase-8” value is given as “responded earlier at 24 h with increased activity at 48 h”.
